Our source for the Ki and ED50 values is ChEMBL document CHEMBL1136546, “SLV310, a novel, potential antipsychotic, combining potent dopamine D2 receptor antagonism with serotonin reuptake inhibition” (Bioorg Med Chem Lett, 2003).

Test [1] deals with Sodium-dependent serotonin transporter (Rattus norvegicus, UniProt P31652). Nature of the test: In vitro binding affinity for serotonin reuptake sites in rat frontal cortex membranes by [3H]paroxetine displacement. It counts as cell membranes, Membrane.
Sequence of Sodium-dependent serotonin transporter (P31652 whole entry): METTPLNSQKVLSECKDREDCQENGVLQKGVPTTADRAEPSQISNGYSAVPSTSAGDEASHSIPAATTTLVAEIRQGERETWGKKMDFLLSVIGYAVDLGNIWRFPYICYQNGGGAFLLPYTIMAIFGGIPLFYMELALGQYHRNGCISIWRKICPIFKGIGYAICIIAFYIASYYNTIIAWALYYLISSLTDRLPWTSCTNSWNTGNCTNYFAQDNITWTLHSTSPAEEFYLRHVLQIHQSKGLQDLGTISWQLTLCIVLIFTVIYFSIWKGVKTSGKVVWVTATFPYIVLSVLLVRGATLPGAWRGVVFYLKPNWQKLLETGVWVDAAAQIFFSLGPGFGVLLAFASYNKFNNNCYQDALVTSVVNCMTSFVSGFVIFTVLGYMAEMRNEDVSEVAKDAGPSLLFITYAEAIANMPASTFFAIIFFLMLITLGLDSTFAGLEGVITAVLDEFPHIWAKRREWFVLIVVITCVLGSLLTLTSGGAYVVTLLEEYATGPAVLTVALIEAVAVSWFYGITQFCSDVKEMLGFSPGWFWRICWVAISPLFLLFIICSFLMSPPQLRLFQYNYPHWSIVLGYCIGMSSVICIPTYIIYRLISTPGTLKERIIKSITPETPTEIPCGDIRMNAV
The target in the next test is D(2) dopamine receptor (Homo sapiens, UniProt P14416). Description: In vitro binding affinity at human cloned dopamine receptor D2 (long) stably expressed in CHO cells by [3H]spiperone displacement. Format: cell-based.
Sequence of D(2) dopamine receptor (P14416 whole entry): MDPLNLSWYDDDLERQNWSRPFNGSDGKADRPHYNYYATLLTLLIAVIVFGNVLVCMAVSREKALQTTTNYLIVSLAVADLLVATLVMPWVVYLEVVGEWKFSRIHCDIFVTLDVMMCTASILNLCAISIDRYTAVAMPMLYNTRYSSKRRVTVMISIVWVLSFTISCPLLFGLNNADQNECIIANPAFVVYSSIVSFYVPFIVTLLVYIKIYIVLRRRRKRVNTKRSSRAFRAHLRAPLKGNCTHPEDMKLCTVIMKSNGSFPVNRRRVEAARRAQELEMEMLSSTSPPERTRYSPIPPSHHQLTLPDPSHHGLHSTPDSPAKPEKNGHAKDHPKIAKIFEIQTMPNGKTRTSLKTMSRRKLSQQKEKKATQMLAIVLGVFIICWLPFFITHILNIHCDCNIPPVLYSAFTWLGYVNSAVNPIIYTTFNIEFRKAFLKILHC
Test [2] relates to Mus musculus. Nature of the test: Dopaminergic antagonistic activity was determined in vivo by antagonising apomorphine induced climbing behavior (APO) in mice by oral administration. It counts as functional.
The test system of test [3] is Mus musculus. Nature of the test: Serotonin reuptake activity was determined in vivo by potentiation of 5-hydroxytryptophan induced serotonin syndrome like behavior in mice by oral administration. It counts as functional.
For another test, the system named is Rattus norvegicus. Nature of the test: Effective dose to exhibit antipsychotic potency after oral administration in rats was determined. Format: functional.

What is called Ki is the equilibrium dissociation constant of an inhibitor or competing ligand from its target. Read a low Ki as higher affinity. As for `Cc1cccc2c1C(=O)N(CCCCCN1CC=C(c3c[nH]c4ccccc34)CC1)C2=O`, the Ki in test [1] was determined as 1 nM; on D(2) dopamine receptor it was 100 nM.

As usually defined, the ED50 is the dose at which the effect has come halfway, by size or by number of responders. As for `O=C1c2cccc(F)c2C(=O)N1CCCCCN1CC=C(c2c[nH]c3ccccc23)CC1`, the Ki came to 0.8 nM in test [1] and 25 nM on D(2) dopamine receptor. Further, the values for the ED50 with Mus musculus [2] and with Mus musculus [3] were more than 20 mg/kg and less than 50 mg/kg, respectively.

Regarding `Cc1cccc2c(C3=CCN(CCCCCN4C(=O)c5ccccc5C4=O)CC3)c[nH]c12`, the Ki is 1.3 nM in test [1] and 40 nM on D(2) dopamine receptor.

Take `O=C1c2ccccc2C(=O)N1CCCCCN1CC=C(c2c[nH]c3ccc(F)cc23)CC1`: the ED50 came to 17.5 mg/kg with Rattus norvegicus, 5.6 mg/kg with Mus musculus [2] and 5.9 mg/kg in the test on Mus musculus [3]. Also, the results for the Ki (in test [1]; on D(2) dopamine receptor) were 2.5 nM and 5 nM, respectively.

For the molecule `Cc1ccc2c(c1)C(=O)N(CCCCCN1CC=C(c3c[nH]c4ccccc34)CC1)C2=O`, the Ki was 2 nM in test [1] and 40 nM on D(2) dopamine receptor.

As to `O=C1c2ccccc2C(=O)N1CCCCCCCN1CC=C(c2c[nH]c3ccc(F)cc23)CC1`, the Ki in test [1] turned out to be 0.8 nM; at D(2) dopamine receptor, 25 nM.

Regarding `c1ccc2c(CCC3CCNCC3)c[nH]c2c1` [INDALPINE], the Ki on D(2) dopamine receptor was more than 1000 nM.

`C1=C(c2c[nH]c3ccccc23)CCNC1` yielded a Ki in test [1] of 6 nM.

Take `O=C1c2ccccc2C(=O)N1CCCCN1CC=C(c2c[nH]c3ccc(F)cc23)CC1`: the Ki was 0.6 nM in test [1] and 16 nM at D(2) dopamine receptor.

As to `O=C(CCCN1CCC(CCc2c[nH]c3ccccc23)CC1)c1ccc(F)cc1`, the Ki in test [1] is 2 nM; at D(2) dopamine receptor, 40 nM. Also, the ED50 was 11 mg/kg with Mus musculus [2] and more than 30 mg/kg in the test with Mus musculus [3].

On to `Cc1ccc2c(c1)C(=O)N(CCCCCN1CC=C(c3c[nH]c4ccc(F)cc34)CC1)C2=O`, for which the Ki was 3 nM in test [1] and 20 nM at D(2) dopamine receptor.

With `O=C1c2cccc(F)c2C(=O)N1CCCCCN1CC=C(c2c[nH]c3ccc(F)cc23)CC1`, the Ki in test [1] turned out to be 0.4 nM; on D(2) dopamine receptor, 12 nM. Further, the ED50 with Mus musculus [2] was 6.1 mg/kg; in the test on Mus musculus [3], 10 mg/kg.

`O=C1c2ccc(F)cc2C(=O)N1CCCCCN1CC=C(c2c[nH]c3ccc(F)cc23)CC1`: the Ki stood at 1.3 nM in test [1] and 10 nM on D(2) dopamine receptor. Also, the ED50 in the test on Mus musculus [2] was determined as 5 mg/kg; with Mus musculus [3], 10 mg/kg.

Take `O=C1c2ccccc2C(=O)N1CCCN1CC=C(c2c[nH]c3ccc(F)cc23)CC1`: the Ki in test [1] turned out to be 25 nM; at D(2) dopamine receptor, 20 nM.

Regarding `O=C(CCCN1CCC(O)(c2ccc(Cl)cc2)CC1)c1ccc(F)cc1` [HALOPERIDOL], it took a dose of 0.1 mg/kg to reach the 50% effect level in the test with Mus musculus [2] (ED50).

Consider `O=C1c2ccc(F)cc2C(=O)N1CCCCCN1CC=C(c2c[nH]c3ccccc23)CC1`, for which the Ki in test [1] was 2 nM; at D(2) dopamine receptor it was 40 nM.

On to `O=C1c2ccccc2C(=O)N1CCCCCN1CC=C(c2c[nH]c3ccccc23)CC1`, for which the values for the Ki (in test [1]; on D(2) dopamine receptor) were 2.5 nM and 25 nM, respectively. Also, the ED50 in the test with Mus musculus [2] worked out at 14 mg/kg; in the test on Mus musculus [3], 7.1 mg/kg.

`O=C1c2ccccc2C(=O)N1CCCCCN1CC=C(c2c[nH]c3ccc(Cl)cc23)CC1`: the Ki in test [1] worked out at 16 nM; on D(2) dopamine receptor it was 20 nM.

Consider `Cc1cccc2c1C(=O)N(CCCCCN1CC=C(c3c[nH]c4ccc(F)cc34)CC1)C2=O`, for which the values for the Ki (in test [1]; on D(2) dopamine receptor) were 1 nM and 25 nM, respectively.
